The values that follow come from patent US6362164B1, “Combination of a somatostatin analogue and a rapamycin” (Novartis AG, priority 1996, dated 2002).

The test system of assay [1] is AR42J (AR4-2J) rat pancreatic tumor cell line. As to the kind of experiment: In vivo AR42J tumor growth in nude mice. The conditions noted are these: after 4 weeks; s.c. AR42J tumors in female nude mice; Compound B or rapamycin 5 mg/kg p.o., octreotide slow release 30 mg/kg s.c. single inj.; control 4020 (3 week value).
Protocol: Cultures are propagated in DMEM supplemented with 10% fetal calf serum (FCS) at 5% CO2. Cells are grown in the absence of antibiotics or antifungal agents. Female nude mice (nu/nu Balbc-A from Iffa Credo, Lyon, France) weighing 19-22 g, are kept in groups of 5 animals in macrolon cages (type III, 16×22×11 cm). The cages are placed in ventilated cabinets (Iffa Credo) that are maintained at 24±1° C. The animals have free access to drinking water and a pathogen-free rodent diet (Diet A, Kliba, Basel, Switzerland). To initiate tumors from cultured cells, AR42J cells are trypsinized and 10×10^6 tumor cells (in 0.2 ml) are injected subcutaneously (s.c.) into both flanks of nude mice. […] Control animals receive placebo. Animals are treated as indicated below for 3 weeks with single agents or the drug combination. The somatostatin analogue is given as a single injection of a slow release form at 30 mg/kg s.c. The size of the tumors is determined with a caliper. To calculate the tumor volume in ml, the equation “volume (ellipsoid)=length×depth×height×0.52” was used.
After 4 weeks, the following tumor sizes were determined.
Assay [2] deals with AR42J cells. As to the kind of experiment: In vitro AR42J cell growth assay (SRB staining, delta OD). It counts as cell-based, rat. Also noted: Cell Growth (ΔOD): unit not given here. The conditions noted are these: octreotide 1.2 nM, Compound B 12.0 nM, combination 1.2 + 12.0 nM; for Cell Growth (% of CONTROL) Observed: control = 100. A general note: Sulforhodamine B stains cellular protein and so reports cell mass.

For `CO[C@H]1C[C@@H]2CC[C@@H](C)[C@@](O)(O2)C(=O)C(=O)N2CCCC[C@H]2C(=O)O[C@H]([C@H](C)C[C@@H]2CC[C@@H](OCCO)[C@H](OC)C2)CC(=O)[C@H](C)/C=C(\C)[C@@H](O)[C@@H](OC)C(=O)[C@H](C)C[C@H](C)/C=C/C=C/C=C/1C` [Compound B, 40-O-(2-hydroxy)ethyl-rapamycin], the “Tumor Volume” value in assay [1] is 3685 mm^3. For the same compound, the “Cell Growth (% of CONTROL) Observed” value in assay [2] is 63.3%. Take Rapamycin: the “Tumor Volume” value in assay [1] turned out to be 2748 mm^3.

Take octreotide: the “Cell Growth (ΔOD)” value in assay [2] (DMEM+2.5% FCS, control 664 ± 9) was determined as 397 ± 16. In addition, the “Cell Growth (% of CONTROL) Observed” value in assay [2] came out at 59.8%.
